Measurements reported in the supplement of paper PMC10307832.

What was measured:
Experiment in all cases: relative viability (nuclei count vs DMSO), 5 days (fraction); higher = more cells survive
[1] = compound: O=C(/C=C/c1cccnc1)NCCCCC1CCN(C(=O)c2ccccc2)CC1 [Daporinad] + O=C(CCCCCCC(=O)Nc1ccccc1)NO [Vorinostat] (partner 1 µM)
In short: (§1)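 Relative viability was taken as the ratio of nuclei in treated wells to nuclei in vehicle wells. Lung cancer cell lines in 1536-well plates received compounds by pin tool one day after seeding, either one drug alone or a fixed anchor-drug dose plus five library-drug doses (not always all listed) in √10 steps. Nuclei were counted on 4× images after 5 days of treatment, and values are medians of duplicate plates.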

[2] = compound: O=C(/C=C/c1cccnc1)NCCCCC1CCN(C(=O)c2ccccc2)CC1 [Daporinad] + COc1cccc2cc(-c3nc([C@H]4CC[C@H](C(=O)O)CC4)n4ncnc(N)c34)[nH]c12 [OSI-027] (partner 0.5 µM)
In short: as §1

[3] = compound: O=C(/C=C/c1cccnc1)NCCCCC1CCN(C(=O)c2ccccc2)CC1 [Daporinad] + Cc1nc(NC(=O)N2CCC[C@H]2C(N)=O)sc1-c1ccnc(C(C)(C)C(F)(F)F)c1 [Alpelisib] (partner 2 µM)
In short: as §1

[4] = compound: O=C(/C=C/c1cccnc1)NCCCCC1CCN(C(=O)c2ccccc2)CC1 [Daporinad] + C[C@]1(O)C[C@@H](c2nc(-c3ccc4ccc(-c5ccccc5)nc4c3)c3c(N)nccn32)C1 [Linsitinib] (partner 1 µM)
In short: as §1

Cell Line | relative viability ([1]; first compound 0.0005 µM) | relative viability ([1]; first compound 0.001581 µM) | relative viability ([1]; first compound 0.005 µM) | relative viability ([1]; first compound 0.01581 µM) | relative viability ([2]; first compound 0.0005 µM) | relative viability ([2]; first compound 0.001581 µM) | relative viability ([2]; first compound 0.005 µM) | relative viability ([2]; first compound 0.01581 µM) | relative viability ([3]; first compound 0.0005 µM) | relative viability ([3]; first compound 0.001581 µM) | relative viability ([3]; first compound 0.005 µM) | relative viability ([3]; first compound 0.01581 µM) | relative viability ([4]; first compound 0.0005 µM) | relative viability ([4]; first compound 0.001581 µM) | relative viability ([4]; first compound 0.005 µM) | relative viability ([4]; first compound 0.01581 µM)
ABC-1 | 0.809 | 1.51 | 1.46 | 0.9 | 0.485 | 0.472 | 0.704 | 0.517 | 1.21 | 1.18 | 0.969 | 0.989 | 0.887 | 1.04 | 0.882 | 0.792
NCI-H1793 | 0.542 | 0.508 | 0.809 | 0.969 | 0.25 | 0.252 | 0.343 | 0.254 | 0.745 | 0.749 | 0.732 | 0.792 | 0.697 | 0.853 | 1.14 | 0.926
NCI-H1299 | – | – | – | – | – | – | – | – | 1.15 | 1.06 | 1.04 | 1.1 | 0.986 | 1.14 | 0.975 | 0.941
EBC-1 | – | – | – | – | – | – | – | – | 0.761 | 0.901 | 0.935 | 0.859 | 0.747 | 1.21 | 0.801 | 1.07
NCI-H2347 | 0.586 | 0.754 | 0.601 | 0.616 | 0.463 | 0.377 | 0.335 | 0.489 | 1.11 | 1.22 | 1.02 | 1.08 | 1.1 | 1.03 | 1 | 0.981
NCI-H1993 | 0.766 | 0.723 | 0.775 | 0.88 | 0.618 | 0.508 | 0.55 | 0.542 | 0.696 | 0.67 | 0.685 | 0.688 | 0.703 | 0.715 | 0.782 | 0.77
NCI-H322M | 0.891 | 0.877 | 0.831 | 0.669 | 0.526 | 0.617 | 0.613 | 0.52 | 0.757 | 0.945 | 0.85 | 0.769 | 0.995 | 1.03 | 0.926 | 0.925
PC-14 | 0.519 | 0.863 | 0.898 | 0.472 | 0.708 | 1.04 | 0.917 | 0.604 | 0.985 | 0.97 | 0.913 | 0.897 | 1.03 | 1.04 | 0.884 | 0.905
HARA | 0.39 | 0.527 | 0.518 | 0.663 | 0.488 | 0.56 | 0.55 | 0.355 | 0.702 | 0.955 | 0.638 | 0.176 | 0.949 | 0.937 | 1.03 | 0.188
NCI-H2087 | 0.89 | 0.645 | 0.576 | 0.792 | 0.474 | 0.693 | 0.694 | 0.538 | 1.07 | 1.36 | 1.14 | 0.928 | 0.991 | 0.908 | 0.956 | 0.98
NCI-H1437 | 0.759 | 0.831 | 0.893 | 0.718 | 0.851 | 0.885 | 0.885 | 0.882 | 1 | 1.01 | 1.03 | 0.936 | 0.969 | 0.986 | 0.976 | 0.965
NCI-H358 | 0.688 | 0.75 | 0.801 | 0.558 | 0.664 | 0.794 | 0.886 | 0.77 | 0.833 | 0.984 | 0.887 | 0.834 | 0.64 | 0.822 | 0.882 | 0.791
NCI-H1792 | – | – | – | – | 0.668 | 0.655 | 0.541 | 0.893 | 0.715 | 0.761 | 0.339 | 0.752 | 0.392 | 0.486 | 0.359 | 0.686
ChaGo-K-1 | 0.832 | 0.743 | 0.677 | 0.283 | 0.673 | 0.597 | 0.636 | 0.471 | – | – | – | – | – | – | – | –
NCI-H661 | 0.766 | 0.709 | 0.461 | 0.568 | 0.811 | 0.719 | 0.74 | 0.341 | 0.635 | 0.506 | 0.649 | 0.401 | 0.488 | 0.555 | 0.561 | 0.405
COR-L23 | 0.427 | 0.345 | 0.408 | 0.161 | 0.737 | 0.772 | 0.814 | 0.255 | 0.891 | 1.01 | 0.691 | 0.183 | 0.964 | 0.959 | 0.942 | 0.189
COR-L 105 | 0.775 | 0.705 | 0.861 | 0.851 | 0.671 | 0.748 | 0.883 | 0.694 | 1.14 | 1.02 | 1.12 | 1.06 | 0.927 | 1.07 | 0.842 | 1.08
LK-2 | 0.28 | 0.331 | 0.307 | 0.256 | 0.225 | 0.241 | 0.18 | 0.192 | 0.995 | 1.24 | 0.719 | 0.549 | 0.665 | 0.648 | 0.362 | 0.196
NCI-H1648 | 0.439 | 0.333 | 0.424 | 0.41 | 0.231 | 0.26 | 0.262 | 0.244 | – | – | – | – | – | – | – | –
NCI-H1623 | – | – | – | – | 0.413 | 0.439 | 0.466 | 0.475 | – | – | – | – | – | – | – | –
A549 | – | – | – | – | – | – | – | – | 0.764 | 0.804 | 0.879 | 0.572 | 0.535 | 0.604 | 0.516 | 0.627
NCI-H1563 | – | – | – | – | 0.754 | 0.749 | 0.807 | 0.719 | 0.956 | 0.923 | 0.723 | 0.914 | 1.29 | 1.21 | 1.07 | 0.739
IA-LM | 0.855 | 1.25 | 0.986 | 1.09 | – | – | – | – | 0.865 | 0.983 | 0.967 | 0.58 | 0.531 | 0.866 | 0.437 | 0.553
NCI-H1703 | – | – | – | – | – | – | – | – | 0.412 | 0.379 | 0.466 | 0.312 | 0.77 | 1.27 | 0.996 | 0.626
SW 900 | 0.461 | – | 0.86 | 0.3 | 0.42 | 0.475 | 0.745 | 0.463 | – | – | – | – | – | – | – | –
